This is an account of results in US20110015120A1, “Pharmaceutical and cosmetic compositions including lactoferrin, ciclopirox, etidronic acid” (VALETUDO S . r . l ., priority 2009, published 2011).

“And” between values parts separate entries of the source, which are not always exact repeats. Identical values can stand only once. “Also recorded” adds a separate entry of the source.

This assay deals with MALASSEZIA GLOBOSA. The assay can be described thus: Inhibition of Malassezia globosa growth, colony count (UFC/ml) on Dixon's Agar. Format: cell-based. The note with it: for dil 10X colony count: 200 μl of suspension diluted 10X on Petri dish; for dil 10X colony count / X50 (calculation made based on the dilution): three replicates; for AVERAGE: average of three replicates; for % reduction of Malassezia globosa cells growth (% increase of antimycotic activity): compared to CICLOPIROXOLAMINE alone; for X50 (calculation made based on the dilution): dil 10X count x50. How it is done: To assess the capacity of the LACTOFERRIN to enhance the antimycotic action of the CIPROPIROXOLAMIN, a suspension of a MALASSEZIA GLOBOSA STRAIN is inoculated on a specific culture medium and the capacity of the compounds to inhibit the mycotic growth is observed, by counting of the UFC/ml.
As first approach, the two compounds are tested at the concentration of 1:500 and, subsequently, diluted in culture medium at 2 decreasing concentrations (10× and 100×) in order to visualize the individual activities. Then in order to evaluate the capacity of the LACTOFERRIN to increase the antimycotic effect of the CICLOPIROXOLAMIN, the same test was carried out on the mix of the two active ingredients at different ratios (1:2 and 1:5).
Each test was performed three times and the incubation times were 1 and 4 hours respectively.
Based on the results obtained, the best dilution for the execution of the tests was the 10× dilution and both the incubation times (1 hour and 4 hours) were taken into consideration since the experimental conditions permitted an accurate count to be carried out of the colonies on the Petri dishes.
The microorganism used is MALASSEZIA GLOBOSA.
The microorganisms were cultured in specific culture medium (Dixon's Agar) until reaching a concentration of approximately […] per ml. Aliquots of 1 ml of this inoculum were then taken to which were added respectively: • Ciclopiroxolamine 1:500 • Lactoferrin 1:500 • Mixture 1:2 Ciclopiroxolamine:lactoferrin • Mixture 1:5 Ciclopiroxolamine:lactoferrin
As positive control, the untreated inoculum was used (MALASSEZIA and diluting liquid), as negative controls the two active ingredients in diluting liquid.
After incubations of 1 hour and 4 hours respectively, aliquots of 200 μl of each suspension were spread on Petri dishes.
For each treatment, the test was carried out three times and for 3 different dilutions (non diluted suspension (TQ), dilution 10× and dilution 100×).
The 54 dishes obtained were then examined, after incubation of 5-6 days and the microbial load of each specimen was calculated (UFC/ml).
The % increase of the antimycotic property corresponds to the % reduction of the growth of Malassezia Globosa

For the compound `Cc1cc(C2CCCCC2)n(O)c(=O)c1` [CICLOPIROXOLAMINE, Ciclopirox Olamine], under “after four hours of incubation”, the “reduction in the growth of Malassezia Globosa (in words)” value is listed as “marked reduction”. In addition, the “reduction in the growth of Malassezia Globosa (in words)” value (after one hour of incubation) is listed as “marked reduction”. Also, the “antimycotic activity towards Malassezia Globosa (in words)” value (overall statement) is given as “decidedly more effective in reducing the growth compared to the LACTOFERRIN; also recorded: marked antimycotic activity”. For the same compound, for the setting “period of incubation 1 hour”, the “Log (AVERAGE)” value is 3.985; the “dil 10X colony count” value was 208 and 170 and 202; the AVERAGE is recorded as 9666.667 UFC/ml; the “% reduction of Malassezia globosa cells growth (% increase of antimycotic activity)” value is recorded as 0%. Besides, the “X50 (calculation made based on the dilution)” value (period of incubation 1 hour) is 10400 UFC/ml and 8500 UFC/ml and 10100 UFC/ml. For the same compound, where the note is “period of incubation 4 hour”, the “Log (AVERAGE)” value was found to be 3.209; the “dil 10X colony count” value was 38 and 34 and 25; the AVERAGE amounted to 1616.667 UFC/ml; the “% reduction of Malassezia globosa cells growth (% increase of antimycotic activity)” value was found to be 0%. For the same compound, the “X50 (calculation made based on the dilution)” value (period of incubation 4 hour) was 1900 UFC/ml and 1700 UFC/ml and 1250 UFC/ml.
